From patent US8815875B2 (Merck Sharp & Dohme Corp., priority 2008, dated 2014)

These molecules were tested against FABP4 (Homo sapiens, UniProt P15090) (assay: TdF (Temperature Dependence Fluorescence) assay, thermal shift, FABP4).
Type: binding
How it was run: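 Binding measured as ΔTm versus protein alone; binding constants derived by nonlinear fitting with ΔHL set to −7 kcal/mol and ΔCpL to zero.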

FABP4, sequence (P15090 whole entry, species assumed): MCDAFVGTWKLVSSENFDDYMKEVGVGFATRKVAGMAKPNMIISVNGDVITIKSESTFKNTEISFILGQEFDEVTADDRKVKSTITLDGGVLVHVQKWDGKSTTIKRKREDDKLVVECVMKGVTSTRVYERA

Row | Kd [nM] | FABP4 TdF Kd | Structure (SMILES)
1 | ≤ 1 |  | O=C(NCC1(c2ccc(Cl)cc2)CCC1)c1c(Cl)cccc1OCc1cc(=O)n2nc(-c3ccccc3)nc2[nH]1 [47-24, 2-chloro-N-((1-(4-chlorophenyl)cyclobutyl)methyl)-6-((7-oxo-2-phenyl-4,7-dihydro-[1,2,4]triazolo[1,5-a]pyrimidin-5-yl)methoxy)benzamide]
2 |  | B (0.5 ≦ B < 0.001 μM) | O=C(NCC1(O)CCOCC1)c1c(Cl)cccc1OCc1cc(=O)n2nc(-c3ccccc3)nc2[nH]1 [47-25, 2-chloro-N-((4-hydroxytetrahydro-2H-pyran-4-yl)methyl)-6-((7-oxo-2-phenyl-4,7-dihydro-[1,2,4]triazolo[1,5-a]pyrimidin-5-yl)methoxy)benzamide]
3 |  | B (0.5 ≦ B < 0.001 μM) | O=C(NCC1(CO)CCOCC1)c1c(Cl)cccc1OCc1cc(=O)n2nc(-c3ccccc3)nc2[nH]1 [47-26, 2-chloro-N-((4-(hydroxymethyl)tetrahydro-2H-pyran-4-yl)methyl)-6-((7-oxo-2-phenyl-4,7-dihydro-[1,2,4]triazolo[1,5-a]pyrimidin-5-yl)methoxy)benzamide]
4 | ≤ 1 |  | CC(C)(C)c1cc(NC(=O)c2c(Cl)cccc2OCc2cc(=O)n3nc(-c4ccccc4)nc3[nH]2)n(-c2ccc(Cl)cc2)n1 [47-27, N-(3-tert-butyl-1-(4-chlorophenyl)-1H-pyrazol-5-yl)-2-chloro-6-((7-oxo-2-phenyl-4,7-dihydro-[1,2,4]triazolo[1,5-a]pyrimidin-5-yl)methoxy)benzamide]
5 | ≤ 1 |  | CC1(CNC(=O)c2c(Cl)cccc2OCc2cc(=O)n3nc(-c4ccccc4)nc3[nH]2)COC1 [47-28, 2-chloro-N-((3-methyloxetan-3-yl)methyl)-6-((7-oxo-2-phenyl-4,7-dihydro-[1,2,4]triazolo[1,5-a]pyrimidin-5-yl)methoxy)benzamide]
6 | ≤ 1 |  | O=C(NCC1(c2ccccc2Cl)CC1)c1c(Cl)cccc1OCc1cc(=O)n2nc(-c3ccccc3)nc2[nH]1 [47-29, 2-chloro-N-((1-(2-chlorophenyl)cyclopropyl)methyl)-6-((7-oxo-2-phenyl-4,7-dihydro-[1,2,4]triazolo[1,5-a]pyrimidin-5-yl)methoxy)benzamide]
7 |  | B (0.5 ≦ B < 0.001 μM) | O=C(NCC1(CO)CCC1)c1c(Cl)cccc1OCc1cc(=O)n2nc(-c3ccccc3)nc2[nH]1 [47-30, 2-chloro-N-((1-(hydroxymethyl)cyclobutyl)methyl)-6-((7-oxo-2-phenyl-4,7-dihydro-[1,2,4]triazolo[1,5-a]pyrimidin-5-yl)methoxy)benzamide]
8 |  | B (0.5 ≦ B < 0.001 μM) | O=C(Nc1cc(C2CC2)n[nH]1)c1c(Cl)cccc1OCc1cc(=O)n2nc(-c3ccccc3)nc2[nH]1 [47-32, 2-chloro-N-(3-cyclopropyl-1H-pyrazol-5-yl)-6-((7-oxo-2-phenyl-4,7-dihydro-[1,2,4]triazolo[1,5-a]pyrimidin-5-yl)methoxy)benzamide]
9 |  | B (0.5 ≦ B < 0.001 μM) | O=C(NCC1(CO)COC1)c1c(Cl)cccc1OCc1cc(=O)n2nc(-c3ccccc3)nc2[nH]1 [47-34, 2-chloro-N-((3-(hydroxymethyl)oxetan-3-yl)methyl)-6-((7-oxo-2-phenyl-4,7-dihydro-[1,2,4]triazolo[1,5-a]pyrimidin-5-yl)methoxy)benzamide]
10 |  | B (0.5 ≦ B < 0.001 μM) | O=C(NC1(CO)CCC1)c1c(Cl)cccc1OCc1cc(=O)n2nc(-c3ccccc3)nc2[nH]1 [47-35]
11 |  | B (0.5 ≦ B < 0.001 μM) | CC(NC(=O)c1c(Cl)cccc1OCc1cc(=O)n2nc(-c3ccccc3)nc2[nH]1)C1CCC1 (centres unmarked) [47-36]
12 | ≤ 1 |  | O=C(NCC1(c2cccc(Cl)c2)CCC1)c1c(Cl)cccc1OCc1cc(=O)n2nc(-c3ccccc3)nc2[nH]1 [47-37, 2-chloro-N-((1-(3-chlorophenyl)cyclobutyl)methyl)-6-((7-oxo-2-phenyl-4,7-dihydro-[1,2,4]triazolo[1,5-a]pyrimidin-5-yl)methoxy)benzamide]
13 | ≤ 1 |  | COc1cccc(C2(CNC(=O)c3c(Cl)cccc3OCc3cc(=O)n4nc(-c5ccccc5)nc4[nH]3)CCC2)c1 [47-38, 2-chloro-N-((1-(3-methoxyphenyl)cyclobutyl)methyl)-6-((7-oxo-2-phenyl-4,7-dihydro-[1,2,4]triazolo[1,5-a]pyrimidin-5-yl)methoxy)benzamide]
14 |  | B (0.5 ≦ B < 0.001 μM) | Cn1ccc(NC(=O)c2c(Cl)cccc2OCc2cc(=O)n3nc(-c4ccccc4)nc3[nH]2)n1 [47-40]
15 | > 500 |  | CN(CC1CC1)C(=O)c1c(Cl)cccc1OCc1cc(=O)n2nc(-c3ccccc3)nc2[nH]1 [47-46]
16 |  | B (0.5 ≦ B < 0.001 μM) | CC1(NC(=O)c2c(Cl)cccc2OCc2cc(=O)n3nc(-c4ccccc4)nc3[nH]2)COC1 [47-47]
17 |  | B (0.5 ≦ B < 0.001 μM) | COc1ccccc1C1(CNC(=O)c2c(Cl)cccc2OCc2cc(=O)n3nc(-c4ccccc4)nc3[nH]2)CC1 [47-48]
18 |  | B (0.5 ≦ B < 0.001 μM) | Nc1cc(C2CC2)n(C(=O)c2c(Cl)cccc2OCc2cc(=O)n3nc(-c4ccccc4)nc3[nH]2)n1 [47-49]
19 | ≤ 1 |  | Nc1cc(C2CC2)nn1C(=O)c1c(Cl)cccc1OCc1cc(=O)n2nc(-c3ccccc3)nc2[nH]1 [47-50]
20 | ≤ 1 |  | Cc1cc(N)n(C(=O)c2c(Cl)cccc2OCc2cc(=O)n3nc(-c4ccccc4)nc3[nH]2)n1 [47-51]
21 |  | B (0.5 ≦ B < 0.001 μM) | Cc1cc(N)nn1C(=O)c1c(Cl)cccc1OCc1cc(=O)n2nc(-c3ccccc3)nc2[nH]1 [47-52]
22 | > 500 |  | O=C(O)c1ccccc1OCc1cc(=O)n2nc(-c3ccccc3)nc2[nH]1 [47-53]

Row | Kd [nM] | FABP4 TdF Kd | Structure (SMILES)
23 |  | B (0.5 ≦ B < 0.001 μM) | Cn1nccc1NC(=O)c1ccccc1OCc1cc(=O)n2nc(-c3ccccc3)nc2[nH]1 [47-54]
24 |  | B (0.5 ≦ B < 0.001 μM) | O=C(NCC1CC1)c1ccccc1OCc1cc(=O)n2nc(-c3ccccc3)nc2[nH]1 [47-55]
25 |  | B (0.5 ≦ B < 0.001 μM) | O=C(NCC1CCC1)c1ccccc1OCc1cc(=O)n2nc(-c3ccccc3)nc2[nH]1 [47-56]
26 | > 500 |  | Cn1ccc(NC(=O)c2ccccc2OCc2cc(=O)n3nc(-c4ccccc4)nc3[nH]2)n1 [47-57]
27 |  | B (0.5 ≦ B < 0.001 μM) | O=C(NCC1(CO)CCC1)c1ccccc1OCc1cc(=O)n2nc(-c3ccccc3)nc2[nH]1 [47-58]
28 |  | B (0.5 ≦ B < 0.001 μM) | O=C(NCC1(CO)CCCC1)c1ccccc1OCc1cc(=O)n2nc(-c3ccccc3)nc2[nH]1 [47-59]
29 |  | B (0.5 ≦ B < 0.001 μM) | O=C(NCC1(c2ccccc2Cl)CC1)c1ccccc1OCc1cc(=O)n2nc(-c3ccccc3)nc2[nH]1 [47-60]
30 |  | B (0.5 ≦ B < 0.001 μM) | O=C(NCCC1CC1)c1ccccc1OCc1cc(=O)n2nc(-c3ccccc3)nc2[nH]1 [47-61]
31 |  | B (0.5 ≦ B < 0.001 μM) | CN(C(=O)c1ccccc1OCc1cc(=O)n2nc(-c3ccccc3)nc2[nH]1)C1CCCCC1 [47-62]
32 |  | B (0.5 ≦ B < 0.001 μM) | O=C(NC1CCCCC1)c1ccccc1OCc1cc(=O)n2nc(-c3ccccc3)nc2[nH]1 [47-63]
33 |  | B (0.5 ≦ B < 0.001 μM) | COCC1(CNC(=O)c2ccccc2OCc2cc(=O)n3nc(-c4ccccc4)nc3[nH]2)CC1 [47-64]
34 |  | B (0.5 ≦ B < 0.001 μM) | O=C(NCC1(CO)CC1)c1ccccc1OCc1cc(=O)n2nc(-c3ccccc3)nc2[nH]1 [47-65]
35 | > 500 |  | O=C(O)C1(OCc2cc(=O)n3nc(-c4ccccc4)nc3[nH]2)CCCCC1 [48-2, 1-((7-oxo-2-phenyl-4,7-dihydro-[1,2,4]triazolo[1,5-a]pyrimidin-5-yl)methoxy)cyclohexanecarboxylic acid]
36 | > 500 |  | O=C(N1CCS(=O)(=O)CC1)C1(OCc2cc(=O)n3nc(-c4ccccc4)nc3[nH]2)CCCCC1 [48-4, 4-[[1-[(4,7-dihydro-7-oxo-2-phenyl[1,2,4]triazolo[1,5-a]pyrimidin-5-yl)methoxy]cyclohexyl]carbonyl]thiomorpholine, 1,1-dioxide]
37 | > 500 |  | COC[C@@H]1CCCN1C(=O)C1(OCc2cc(=O)n3nc(-c4ccccc4)nc3[nH]2)CCCCC1 [48-5, (S)-5-((1-(2-(methoxymethyl)pyrrolidine-1-carbonyl)cyclohexyloxy)methyl)-2-phenyl-[1,2,4]triazolo[1,5-a]pyrimidin-7(4H)-one]
38 |  | B (0.5 ≦ B < 0.001 μM) | COC[C@H]1CCCN1C(=O)C1(OCc2cc(=O)n3nc(-c4ccccc4)nc3[nH]2)CCCCC1 [48-6, (R)-5-((1-(2-(methoxymethyl)pyrrolidine-1-carbonyl)cyclohexyloxy)methyl)-2-phenyl-[1,2,4]triazolo[1,5-a]pyrimidin-7(4H)-one]
39 |  | B (0.5 ≦ B < 0.001 μM) | O=C(N1C[C@@H]2C[C@@H]2[C@H]1CO)C1(OCc2cc(=O)n3nc(-c4ccccc4)nc3[nH]2)CCCCC1 [48-7, 5-((1-((1S,2S,5R)-2-(hydroxymethyl)-3-azabicyclo[3.1.0]hexane-3-carbonyl)cyclohexyloxy)methyl)-2-phenyl-[1,2,4]triazolo[1,5-a]pyrimidin-7(4H)-one]
40 | ≤ 1 |  | O=C(NC1(c2ccccc2Cl)CC1)C1(OCc2cc(=O)n3nc(-c4ccccc4)nc3[nH]2)CCCCC1 [48-8]
41 | ≤ 1 |  | O=C(NC1(c2cccc(Cl)c2)CC1)C1(OCc2cc(=O)n3nc(-c4ccccc4)nc3[nH]2)CCCCC1 [48-9, N-(1-(3-chlorophenyl)cyclopropyl)-1-((7-oxo-2-phenyl-4,7-dihydro-[1,2,4]triazolo[1,5-a]pyrimidin-5-yl)methoxy)cyclohexanecarboxamide]
42 | ≤ 1 |  | O=C(NC1(c2cccc(Cl)c2F)CC1)C1(OCc2cc(=O)n3nc(-c4ccccc4)nc3[nH]2)CCCCC1 [48-10]
43 | ≤ 1 |  | O=C(NCC1(CO)CCC1)C1(OCc2cc(=O)n3nc(-c4ccccc4)nc3[nH]2)CCCCC1 [48-11]
44 | ≤ 1 |  | COc1ccccc1C1(CNC(=O)C2(OCc3cc(=O)n4nc(-c5ccccc5)nc4[nH]3)CCCCC2)CC1 [48-12, N-((1-(2-methoxyphenyl)cyclopropyl)methyl)-1-((7-oxo-2-phenyl-4,7-dihydro-[1,2,4]triazolo[1,5-a]pyrimidin-5-yl)methoxy)cyclohexanecarboxamide]
